Assay results published in ChEMBL document CHEMBL3632622, “Synthesis and biological evaluation of novel N-phenyl ureidobenzenesulfonate derivatives as potential anticancer agents. Part 2. Modulation of the ring B” (Eur J Med Chem, 2015).
Activity calls are given as the source filed them. The rule behind the calls is not given here.

What was measured:
[1] = Antiproliferative activity against human HT1080 cells assessed as growth inhibition incubated for 48 hrs by sulforhodamine B assay; format: functional, cell-based, HT-1080; settings: Homo sapiens, HT-1080, 48 h; read-out: IC50
M21 [2] = experiment: Cell cycle arrest in human M21 cells assessed as accumulation at subG1 phase at 3.3 uM after 24 hrs by DAPI staining-based flow cytometry (reference value: 1.5%); format: functional
MCF7 = experiment: Antiproliferative activity against human MCF7 cells assessed as growth inhibition incubated for 48 hrs by sulforhodamine B assay; format: functional, cell-based; settings: MCF7, 48 h
M21 [3] = experiment: Antiproliferative activity against human M21 cells assessed as growth inhibition incubated for 48 hrs by sulforhodamine B assay; format: functional, cell-based; settings: M21, 48 h
M21 [4] = experiment: Cell cycle arrest in human M21 cells assessed as accumulation at G2/M phase at 3.3 uM after 24 hrs by DAPI staining-based flow cytometry (reference value: 16%); format: functional
M21 [5] = experiment: Cell cycle arrest in human M21 cells assessed as accumulation at S phase at 3.3 uM after 24 hrs by DAPI staining-based flow cytometry (reference value: 17.4%); format: functional
M21 [6] = experiment: Cell cycle arrest in human M21 cells assessed as accumulation at G0/G1 phase at 3.3 uM after 24 hrs by DAPI staining-based flow cytometry (reference value: 65.1%); format: functional
M21 [7] = experiment: Induction DNA DSBs in human M21 cells assessed as increase in gamma H2AX foci at 3.3 uM incubated for 24 hrs by DAPI staining based immunocytochemistry; format: functional, cell-based
HT-29 = experiment: Antiproliferative activity against human HT-29 cells assessed as growth inhibition incubated for 48 hrs by sulforhodamine B assay; format: functional, cell-based; settings: HT-29, 48 h
M21 [8] = experiment: Cell cycle arrest in human M21 cells assessed as accumulation at G0/G1 phase at 48 uM after 24 hrs by DAPI staining-based flow cytometry (reference value: 65.1%); format: functional
M21 [9] = experiment: Cell cycle arrest in human M21 cells assessed as accumulation at G2/M phase at 48 uM after 24 hrs by DAPI staining-based flow cytometry (reference value: 16%); format: functional
M21 [10] = experiment: Cell cycle arrest in human M21 cells assessed as accumulation at S phase at 48 uM after 24 hrs by DAPI staining-based flow cytometry (reference value: 17.4%); format: functional
M21 [11] = experiment: Cell cycle arrest in human M21 cells assessed as accumulation at subG1 phase at 48 uM after 24 hrs by DAPI staining-based flow cytometry (reference value: 1.5%); format: functional
M21 [12] = experiment: Cell cycle arrest in human M21 cells assessed as accumulation at S phase at 5.4 uM after 24 hrs by DAPI staining-based flow cytometry (reference value: 17.4%); format: functional
M21 [13] = experiment: Cell cycle arrest in human M21 cells assessed as accumulation at G0/G1 phase at 5.4 uM after 24 hrs by DAPI staining-based flow cytometry (reference value: 65.1%); format: functional
M21 [14] = experiment: Cell cycle arrest in human M21 cells assessed as accumulation at G2/M phase at 5.4 uM after 24 hrs by DAPI staining-based flow cytometry (reference value: 16%); format: functional
M21 [15] = experiment: Induction DNA DSBs in human M21 cells assessed as increase in gamma H2AX foci at 5.4 uM incubated for 24 hrs by DAPI staining based immunocytochemistry; format: cell-based
M21 [16] = experiment: Cell cycle arrest in human M21 cells assessed as accumulation at subG1 phase at 5.4 uM after 24 hrs by DAPI staining-based flow cytometry (reference value: 1.5%); format: functional
M21 [17] = experiment: Cell cycle arrest in human M21 cells assessed as accumulation at subG1 phase at 2.6 uM after 24 hrs by DAPI staining-based flow cytometry (reference value: 1.5%); format: functional
M21 [18] = experiment: Cell cycle arrest in human M21 cells assessed as accumulation at G2/M phase at 2.6 uM after 24 hrs by DAPI staining-based flow cytometry (reference value: 16%); format: functional
M21 [19] = experiment: Cell cycle arrest in human M21 cells assessed as accumulation at S phase at 2.6 uM after 24 hrs by DAPI staining-based flow cytometry (reference value: 17.4%); format: functional
M21 [20] = experiment: Cell cycle arrest in human M21 cells assessed as accumulation at G0/G1 phase at 2.6 uM after 24 hrs by DAPI staining-based flow cytometry (reference value: 65.1%); format: functional
M21 [21] = experiment: Cell cycle arrest in human M21 cells assessed as accumulation at G2/M phase at 10 uM after 24 hrs by DAPI staining-based flow cytometry (reference value: 16%); format: functional
M21 [22] = experiment: Cell cycle arrest in human M21 cells assessed as accumulation at subG1 phase at 10 uM after 24 hrs by DAPI staining-based flow cytometry (reference value: 1.5%); format: functional
M21 [23] = experiment: Induction DNA DSBs in human M21 cells assessed as increase in gamma H2AX foci at 10 uM incubated for 24 hrs by DAPI staining based immunocytochemistry; format: cell-based
M21 [24] = experiment: Cell cycle arrest in human M21 cells assessed as accumulation at G0/G1 phase at 10 uM after 24 hrs by DAPI staining-based flow cytometry (reference value: 65.1%); format: functional
M21 [25] = experiment: Cell cycle arrest in human M21 cells assessed as accumulation at S phase at 10 uM after 24 hrs by DAPI staining-based flow cytometry (reference value: 17.4%); format: functional
M21 [26] = experiment: Cell cycle arrest in human M21 cells assessed as accumulation at G2/M phase at 3.9 uM after 24 hrs by DAPI staining-based flow cytometry (reference value: 16%); format: functional
M21 [27] = experiment: Cell cycle arrest in human M21 cells assessed as accumulation at G0/G1 phase at 3.9 uM after 24 hrs by DAPI staining-based flow cytometry (reference value: 65.1%); format: functional
M21 [28] = experiment: Cell cycle arrest in human M21 cells assessed as accumulation at subG1 phase at 3.9 uM after 24 hrs by DAPI staining-based flow cytometry (reference value: 1.5%); format: functional
M21 [29] = experiment: Induction DNA DSBs in human M21 cells assessed as increase in gamma H2AX foci at 3.9 uM incubated for 24 hrs by DAPI staining based immunocytochemistry; format: cell-based
M21 [30] = experiment: Cell cycle arrest in human M21 cells assessed as accumulation at S phase at 3.9 uM after 24 hrs by DAPI staining-based flow cytometry (reference value: 17.4%); format: functional

In the case of `Cc1cc(C)c(OS(=O)(=O)c2ccc(NC(=O)NCCCl)cc2)cc1C`, the IC50 [1] is reported as 1000 nM, the Activity (M21 [2]) is reported as 1.7% and the IC50 (MCF7) is reported as 3000 nM. The IC50 (M21 [3]) was 1700 nM, the Activity (M21 [4]) was 27% and the Activity (M21 [5]) was 43.8%. For the same compound, the Activity (M21 [6]) was 27.5%, the Activity (M21 [7]) was “Active” and the IC50 (HT-29) was 2300 nM.

For `O=C(NCCCl)Nc1ccc(S(=O)(=O)Oc2ccc(F)cc2F)cc1`, the IC50 [1] was 9400 nM, the Activity (M21 [8]) was 13.4% and the IC50 (MCF7) was 9300 nM. The Activity (M21 [9]) was 71.4%, the IC50 (M21 [3]) was 9600 nM and the IC50 (HT-29) was 9600 nM. For the same compound, the Activity (M21 [10]) was 10% and the Activity (M21 [11]) was 5.2%.

Work on `Cc1ccccc1OS(=O)(=O)c1ccc(NC(=O)NCCCl)cc1` yielded an IC50 [1] of 1600 nM, an IC50 (MCF7) of 6100 nM and an IC50 (M21 [3]) of 4500 nM. It also gave an Activity (M21 [12]) of 39%, an Activity (M21 [13]) of 39.2% and an Activity (M21 [14]) of 19.5%. For the same compound, the IC50 (HT-29) was 4900 nM, the Activity (M21 [15]) was “Active” and the Activity (M21 [16]) was 2.3%.

With `CCCc1ccccc1OS(=O)(=O)c1ccc(NC(=O)NCCCl)cc1` the IC50 [1] was 1900 nM, the Activity (M21 [17]) was 1.3% and the Activity (M21 [18]) was 25.7%. For the same compound, the IC50 (MCF7) was 2100 nM, the IC50 (M21 [3]) was 1300 nM and the Activity (M21 [19]) was 37%. The IC50 (HT-29) was 1900 nM and the Activity (M21 [20]) was 36%.

`O=C(NCCCl)Nc1ccc(S(=O)(=O)Oc2ccccc2Cl)cc1` gave an IC50 [1] of 1100 nM, an IC50 (MCF7) of 4200 nM and an Activity (M21 [21]) of 21%. The IC50 (M21 [3]) was 2100 nM, the Activity (M21 [22]) was 1.9% and the Activity (M21 [23]) was “Active”. For the same compound, the Activity (M21 [24]) was 43.8%, the IC50 (HT-29) was 3500 nM and the Activity (M21 [25]) was 33.3%.

In the case of `Cc1cccc(C)c1OS(=O)(=O)c1ccc(NC(=O)NCCCl)cc1`, the IC50 [1] is reported as 1100 nM, the Activity (M21 [26]) is reported as 20.3% and the Activity (M21 [27]) is reported as 31%. The IC50 (MCF7) was 3700 nM, the IC50 (M21 [3]) was 2000 nM and the Activity (M21 [28]) was 1.6%. For the same compound, the Activity (M21 [29]) was “Active”, the Activity (M21 [30]) was 47.1% and the IC50 (HT-29) was 2800 nM.
